Test results reported in US11981660B2, “Neurite outgrowth promoters and uses thereof” (UNIVERSITY OF MIAMI, priority 2018, dated 2024).

Test system: hippocampal neurons
Assay: Neurite outgrowth assay in cultured E18 rat hippocampal neurons (48 h, βIII-tubulin staining, Cellomics ArrayScan)
Format: cell-based
Conditions: Hippocampal neuron; for activity at 0.015625 µg/mL: 15.625 ng/mL compound; for activity at 0.015625 µg/mL / activity at 0.03125 µg/mL / activity at 0.0625 µg/mL / activity at 0.125 µg/mL / activity at 0.25 µg/mL / activity at 0.5 µg/mL: 48 hours, read-out: neurite growth length (% NTL); for activity at 0.03125 µg/mL: 31.25 ng/mL compound; for activity at 0.0625 µg/mL: 62.5 ng/mL compound; for activity at 0.125 µg/mL: 125 ng/mL compound; for activity at 0.25 µg/mL: 250 ng/mL compound; for activity at 0.5 µg/mL: 500 ng/mL compound; for EC200 / EC300: 48 h, estimated using linear interpolation; for EC200: 200% effective dose, read-out: ED200%; for EC300: 300% effective dose, read-out: ED300%
Description: Pre-coating culture plates: On the day before the experiment, 96-well plates were pre-coated by plating 50 μL of poly-D-lysine solution (PDL, 0.5 mg/mL) in each well. The next morning, the plates were washed four or five times with HBSS or PBS (150 μL/rinse), then left in buffer until cell plating
Preparing the cells: A timed pregnant rat carrying E18 embryos was euthanized using an IACUC approved method. In a laminar flow hood, the embryos were removed and placed in a petri dish containing Hank's Balanced Salt Solution (HBSS) with 20 mM HEPES, pH 7.3. Pup brains were dissected (see Meberg et al., Methods cell Biol 71:111-127 (2003)) and hippocampi were collected in 15 mL a conical tube containing Hibernate E with SM1 (2% v/v).
Dissociation media was prepared by combining 4.5 mL of Hibernate E (without SM1) with 0.5 mL of trypsin and 100 μl of DNAse solution. The medium over the hippocampi was carefully removed and replaced with dissociation solution, then incubated at 37° C. for 15-20 minutes, occasionally swirling the tube.
Using flame polished cotton plugged Pasteur pipettes, the dissociation media was removed, and then 5 mL of Hibernate E containing SM1 were added. The tube was swirled to thoroughly wash the tissue. The tissue was allowed to settle to the bottom of the tube, and the rinse solution was carefully removed. This step was repeated 5 times to dilute out trypsin and DNAse and remove any debris from lysed cells.
The final rinse media was removed from the tube and 1 pipette-full (1-2 mL) of Hibernate E with SM1 was added. Using the flame-polished Pasteur pipette (pre-wetted with rinse media), the tube was triturated until all cells had dissociated and no visible chunks of tissue remained. Fewer than ten triturations were typically performed. The volume was adjusted to 8-12 mL using Hibernate E containing SM1, the well was mixed and cell concentration was determined.
Plating: The cells were diluted in culture media (NbActiv4 Cell-culture media) to a final concentration of 10,000 cells/mL. The HBSS was aspirated from PDL coated plates, and 150 μL of cell solution was loaded in the middle 48 wells at 1500 cells per well. Water was loaded in the outer wells to decrease evaporation from edge wells. Cells were allowed to adhere for 2 hours in tissue culture incubator prior to treatment.
Treatment: Compounds were diluted to various concentrations to provide 6 dose response concentrations of 500 ng/mL, 250 ng/mL, 125 ng/mL, 62.5 ng/mL, 31.25 ng/mL, and 15.625 ng/mL. The plates were cultured for 48 hours, exposed to the compound at the various dose response concentrations.
Fixing the cultures: The culture medium was removed from the plates and immediately replaced with 100-200 μL of warm (37° C.) 4% paraformaldehyde (“PFA”) solution in phosphate-buffered saline (“PBS”). The cells were fixed for 15-20 minutes at room temperature, and then rinsed with PBS (200 μl/well×3).
Staining and imaging: The PBS was removed and replaced with 100 μL of blocking/permeabilization buffer (PBS, 0.2% fish gelatin, 0.03% Triton X-100, 0.02% NaN3), then incubated overnight at 4° C. To this was added 100 μL of primary antibody solution (mouse anti-Beta III tubulin in blocking buffer) and incubate overnight at 4° C. The wells were rinsed with PBS (200 μl×3), which was then removed and replaced with 100 μL of secondary antibody solution (Goat anti-mouse Alexa 488, 10 μg/ml Hoechst 33342, 0.2% fish gelatin, 0.02% azide, in PBS). The plate was shaken gently on a rotating shaker for 2 hours, then rinsed with PBS (200 μl×5).
The plate was imaged using a Cellomics ArrayScan VTI in 2 different channels for nuclear staining (Hoechst) and cell body/neurite staining (βIII-tubulin). Typically, nine fields per well were imaged with a 5× objective and automatically traced by the Neuronal Profiling Bioapplication. To get reproducible results, at least 200-300 valid neurons were measured per condition. […]

`CCC(C)C1=N[C@@H](CCCCN2C[C@@H](CC(C)C)N(CC3CCC(C)CC3)C2=S)CN1` (stereo partly drawn) [Compound A16, (4R)-1-(4-((4S)-2-(sec-butyl)-4,5-dihydro-1H-imidazol-4-yl)butyl)-4-isobutyl-3-((4-methylcyclohexyl)methyl)imidazolidine-2-thione] was tested, and the activity at 0.015625 µg/mL was 131%, the activity at 0.03125 µg/mL was 216% and the activity at 0.0625 µg/mL was 254%. For the same molecule, the activity at 0.125 µg/mL was 268%, the activity at 0.25 µg/mL was 236% and the activity at 0.5 µg/mL was 264%. It also gave an EC200 of 0.01 µM and an EC300 of 0.053 µM.

For `CCC(C)C1=N[C@@H](CCCCN2C[C@@H](c3ccccc3)N(CCCC(C)C)C2=S)CN1` (stereo partly drawn) [Compound A19, (4R)-1-(4-((4S)-2-(sec-butyl)-4,5-dihydro-1H-imidazol-4-yl)butyl)-3-(4-methylpentyl)-4-phenylimidazolidine-2-thione], the activity at 0.015625 µg/mL was 121%, the activity at 0.03125 µg/mL was 179% and the activity at 0.0625 µg/mL was 253%. It also gave an activity at 0.125 µg/mL of 264%, an activity at 0.25 µg/mL of 266% and an activity at 0.5 µg/mL of 276%.

Molecule `C[C@@H]1CN(CCCC[C@H]2CNC(C3CCCC3)=N2)C(=S)N1CCC1CCCCC1` [Compound A5, (R)-3-(2-cyclohexylethyl)-1-(4-((S)-2-cyclopentyl-4,5-dihydro-1H-imidazol-4-yl)butyl)-4-methylimidazolidine-2-thione] has an activity at 0.015625 µg/mL of 105%, an activity at 0.03125 µg/mL of 158% and an activity at 0.0625 µg/mL of 188%. The activity at 0.125 µg/mL was 251%, the activity at 0.25 µg/mL was 246% and the activity at 0.5 µg/mL was 304%.

Work on `CCC(C)C1=N[C@@H](CCCCN2C[C@@H](CC(C)C)N(CCC3CCCCC3)C2=S)CN1` (stereo partly drawn) [Compound A13, (4R)-1-(4-((4S)-2-(sec-butyl)-4,5-dihydro-1H-imidazol-4-yl)butyl)-3-(2-cyclohexylethyl)-4-isobutylimidazolidine-2-thione] yielded an activity at 0.015625 µg/mL of 159%, an activity at 0.03125 µg/mL of 179% and an activity at 0.0625 µg/mL of 262%. It also gave an activity at 0.125 µg/mL of 253%, an activity at 0.25 µg/mL of 253% and an activity at 0.5 µg/mL of 264%.

Molecule `CC1CCC(CN2C(=S)N(CCCC[C@H]3CNC(CCCc4ccccc4)=N3)C[C@H]2C)CC1` (stereo partly drawn) [Compound A9, (R)-4-methyl-3-((4-methylcyclohexyl)methyl)-1-(4-((S)-2-(3-phenylpropyl)-4,5-dihydro-1H-imidazol-4-yl)butyl)imidazolidine-2-thione] has an activity at 0.015625 µg/mL of 88%, an activity at 0.03125 µg/mL of 102% and an activity at 0.0625 µg/mL of 118%. It also gave an activity at 0.125 µg/mL of 70%, an activity at 0.25 µg/mL of 238% and an activity at 0.5 µg/mL of 297%.

For `CCC(C)C1=N[C@@H](CCCCN2C[C@@H](C)N(CCC3CCCCC3)C2=S)CN1` (stereo partly drawn) [Compound A4, (4R)-1-(4-((4S)-2-(sec-butyl)-4,5-dihydro-1H-imidazol-4-yl)butyl)-3-(2-cyclohexylethyl)-4-methylimidazolidine-2-thione], the activity at 0.015625 µg/mL was 102%, the activity at 0.03125 µg/mL was 121% and the activity at 0.0625 µg/mL was 143%. It also gave an activity at 0.125 µg/mL of 196%, an activity at 0.25 µg/mL of 246% and an activity at 0.5 µg/mL of 358%.

Work on `CCC(C)C1=N[C@@H](CCCCN2C[C@@H](c3ccccc3)N(CCC3CCCCC3)C2=S)CN1` (stereo partly drawn) [Compound A22, (4R)-1-(4-((4S)-2-(sec-butyl)-4,5-dihydro-1H-imidazol-4-yl)butyl)-3-(2-cyclohexylethyl)-4-phenylimidazolidine-2-thione] yielded an activity at 0.015625 µg/mL of 139%, an activity at 0.03125 µg/mL of 201% and an activity at 0.0625 µg/mL of 257%. The activity at 0.125 µg/mL was 246%, the activity at 0.25 µg/mL was 222% and the activity at 0.5 µg/mL was 228%.

`CC(C)CCCN1C(=S)N(CCCC[C@H]2CNC(C3CCCC3)=N2)C[C@H]1CC(C)C` [Compound A11, (R)-1-(4-((S)-2-cyclopentyl-4,5-dihydro-1H-imidazol-4-yl)butyl)-4-isobutyl-3-(4-methylpentyl)imidazolidine-2-thione] gave an activity at 0.015625 µg/mL of 135%, an activity at 0.03125 µg/mL of 215% and an activity at 0.0625 µg/mL of 266%. For the same molecule, the activity at 0.125 µg/mL was 273%, the activity at 0.25 µg/mL was 264% and the activity at 0.5 µg/mL was 256%.

In the case of `CC(C)C[C@@H]1CN(CCCC[C@H]2CNC(C3CCCC3)=N2)C(=S)N1CCC1CCCCC1` [Compound A14, (R)-3-(2-cyclohexylethyl)-1-(4-((S)-2-cyclopentyl-4,5-dihydro-1H-imidazol-4-yl)butyl)-4-isobutylimidazolidine-2-thione], the activity at 0.015625 µg/mL is reported as 195%, the activity at 0.03125 µg/mL is reported as 256% and the activity at 0.0625 µg/mL is reported as 271%. It also gave an activity at 0.125 µg/mL of 283%, an activity at 0.25 µg/mL of 277% and an activity at 0.5 µg/mL of 249%. For the same molecule, the EC200 was 0.004 µM and the EC300 was > 0.543 µM.

With `CCC(C)C1=N[C@@H](CCCCN2C[C@@H](c3ccccc3)N(CC3CCC(C)CC3)C2=S)CN1` (stereo partly drawn) [Compound A25, (4R)-1-(4-((4S)-2-(sec-butyl)-4,5-dihydro-1H-imidazol-4-yl)butyl)-3-((4-methylcyclohexyl)methyl)-4-phenylimidazolidine-2-thione] the activity at 0.015625 µg/mL was 190%, the activity at 0.03125 µg/mL was 256% and the activity at 0.0625 µg/mL was 297%. The activity at 0.125 µg/mL was 302%, the activity at 0.25 µg/mL was 256% and the activity at 0.5 µg/mL was 280%. It also gave an EC200 of 0.005 µM and an EC300 of 0.054 µM.

`CCC(C)C1=N[C@@H](CCCCN2C[C@@H](CC(C)C)N(CCCC(C)C)C2=S)CN1` (mixture of isomers) [Compound A10, (4R)-1-(4-((4S)-2-(sec-butyl)-4,5-dihydro-1H-imidazol-4-yl)butyl)-4-isobutyl-3-(4-methylpentyl)imidazolidine-2-thione] showed an activity at 0.015625 µg/mL of 123%, an activity at 0.03125 µg/mL of 180% and an activity at 0.0625 µg/mL of 223%. It also gave an activity at 0.125 µg/mL of 254%, an activity at 0.25 µg/mL of 259% and an activity at 0.5 µg/mL of 240%.

Molecule `S=C1N(CCCC[C@H]2CNC(C3CCCC3)=N2)C[C@@H](c2ccccc2)N1CCC1CCCCC1` [Compound A23, (R)-3-(2-cyclohexylethyl)-1-(4-((S)-2-cyclopentyl-4,5-dihydro-1H-imidazol-4-yl)butyl)-4-phenylimidazolidine-2-thione] has an activity at 0.015625 µg/mL of 182%, an activity at 0.03125 µg/mL of 252% and an activity at 0.0625 µg/mL of 260%. It also gave an activity at 0.125 µg/mL of 262%, an activity at 0.25 µg/mL of 232% and an activity at 0.5 µg/mL of 186%. For the same molecule, the EC200 was 0.007 µM and the EC300 was 0.091 µM.

In the case of `CC(C)CCCN1C(=S)N(CCCC[C@H]2CNC(C3CCCC3)=N2)C[C@H]1c1ccccc1` [Compound A20, (R)-1-(4-((S)-2-cyclopentyl-4,5-dihydro-1H-imidazol-4-yl)butyl)-3-(4-methylpentyl)-4-phenylimidazolidine-2-thione], the activity at 0.015625 µg/mL is reported as 174%, the activity at 0.03125 µg/mL is reported as 234% and the activity at 0.0625 µg/mL is reported as 280%. It also gave an activity at 0.125 µg/mL of 249%, an activity at 0.25 µg/mL of 278% and an activity at 0.5 µg/mL of 273%.

For `CC(C)CCCN1C(=S)N(CCCC[C@H]2CNC(CCCc3ccccc3)=N2)C[C@H]1C` [Compound A3, (R)-4-methyl-3-(4-methylpentyl)-1-(4-((S)-2-(3-phenylpropyl)-4,5-dihydro-1H-imidazol-4-yl)butyl)imidazolidine-2-thione], the activity at 0.015625 µg/mL was 116%, the activity at 0.03125 µg/mL was 100% and the activity at 0.0625 µg/mL was 124%. The activity at 0.125 µg/mL was 160%, the activity at 0.25 µg/mL was 257% and the activity at 0.5 µg/mL was 347%.
